The values below come from ChEMBL document CHEMBL4602663, “Isocadiolides A-H: Polybrominated Aromatics from a Synoicum sp. Ascidian” (J Nat Prod, 2020).

The structures appear in SMILES notation.

One test concerns Staphylococcus aureus. Kind of test: Antibacterial activity against Staphylococcus aureus ATCC 6538P assessed as reduction in microbial growth. The test is classed as functional.
A further test has as its system Enterococcus faecalis. Kind of test: Antibacterial activity against Enterococcus faecalis ATCC 19433 assessed as reduction in microbial growth. It counts as functional.
For another test, the target named is Isocitrate lyase (Candida albicans, UniProt Q9P8Q7). Kind of test: Inhibition of Candida albicans ICL assessed as reduction in glyoxylate phenylhydrazone formation using M threo-DL(+)isocitrate as substrate incubated for 30 mins by spectrophotometric method.
A further test has as its system Salmonella enterica. The experiment in a line: Antibacterial activity against Salmonella enterica ATCC 14028 assessed as reduction in microbial growth. The test is classed as functional.
A further test concerns Proteus hauseri. The experiment in a line: Antibacterial activity against Proteus hauseri NBRC 3851 assessed as reduction in microbial growth. The test is classed as functional.
The subject of another test is Enterococcus faecium. The experiment in a line: Antibacterial activity against Enterococcus faecium ATCC 19434 assessed as reduction in microbial growth. It counts as functional.
The next test deals with T1, Sortase A (Staphylococcus aureus, UniProt Q9S446).
T1 sequence (Q9S446 whole entry): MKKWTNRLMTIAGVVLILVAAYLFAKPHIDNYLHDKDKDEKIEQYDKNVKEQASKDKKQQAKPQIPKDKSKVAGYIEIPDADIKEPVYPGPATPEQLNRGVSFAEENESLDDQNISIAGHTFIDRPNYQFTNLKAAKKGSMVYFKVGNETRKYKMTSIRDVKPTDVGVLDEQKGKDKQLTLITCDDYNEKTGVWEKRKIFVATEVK
Kind of test: Inhibition of Staphylococcus aureus sortase A.

A further test relates to Klebsiella pneumoniae. The experiment in a line: Antibacterial activity against Klebsiella pneumoniae ATCC 10031 assessed as reduction in microbial growth. The test is classed as functional.
Another test has as its system K562. The experiment in a line: Cytotoxicity against human K562 cells assessed as reduction in cell viability after 72 hrs by sulforhodamine B assay. To be noted: K562, 72 h. The test is classed as functional, cell-based.
The next test concerns A549. Kind of test: Cytotoxicity against human A549 cells assessed as reduction in cell viability after 72 hrs by sulforhodamine B assay. The test is classed as functional, cell-based. To be noted: A549, 72 h. On the technique in general: In SRB staining, fixed cells bind dye roughly in proportion to their protein.

Isocitrate lyase, sequence (Q9P8Q7 whole entry): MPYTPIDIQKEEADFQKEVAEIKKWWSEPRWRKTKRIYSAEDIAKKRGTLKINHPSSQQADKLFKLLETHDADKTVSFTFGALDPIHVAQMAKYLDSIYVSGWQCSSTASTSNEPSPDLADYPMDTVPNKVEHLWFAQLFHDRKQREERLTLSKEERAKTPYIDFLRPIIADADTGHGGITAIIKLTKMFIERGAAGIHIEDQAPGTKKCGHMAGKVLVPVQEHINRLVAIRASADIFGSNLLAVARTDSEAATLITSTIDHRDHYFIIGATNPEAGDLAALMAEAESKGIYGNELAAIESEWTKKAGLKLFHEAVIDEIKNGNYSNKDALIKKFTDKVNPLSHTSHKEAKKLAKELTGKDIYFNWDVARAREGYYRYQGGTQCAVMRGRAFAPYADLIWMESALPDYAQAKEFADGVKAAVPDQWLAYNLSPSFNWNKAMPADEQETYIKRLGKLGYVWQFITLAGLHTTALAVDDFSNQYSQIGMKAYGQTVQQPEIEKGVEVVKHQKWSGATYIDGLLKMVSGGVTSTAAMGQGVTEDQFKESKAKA

The term MIC denotes the lowest concentration found to suppress growth. By IC50 is commonly meant the midpoint of a concentration-inhibition curve. In the case of `COc1c(Br)cc([C@H](O)C2=C(c3ccc(O)c(Br)c3)/C(=C/c3cc(Br)c(O)c(Br)c3)OC2=O)cc1Br`, the minimum inhibitory concentration (MIC) in the test on Staphylococcus aureus was 2 µg/mL; in the test on Enterococcus faecalis, 8 µg/mL; in the test with Salmonella enterica, 4 µg/mL; in the test on Proteus hauseri it was 2 µg/mL; in the test with Enterococcus faecium it was greater than 128 µg/mL; with Klebsiella pneumoniae, greater than 128 µg/mL. In addition, the IC50 on Isocitrate lyase and against Sortase A was greater than 159 µM in each case.
Take `COc1c(Br)cc([C@H](O)C2=C(c3cc(Br)c(O)c(Br)c3)/C(=C/c3ccc(O)c(Br)c3)OC2=O)cc1Br`: the MIC in the test on Staphylococcus aureus is 8 µg/mL; with Enterococcus faecalis, 32 µg/mL; in the test on Salmonella enterica, 8 µg/mL; with Proteus hauseri it was 4 µg/mL; with Enterococcus faecium it was greater than 128 µg/mL; with Klebsiella pneumoniae, greater than 128 µg/mL. The IC50 at Isocitrate lyase and against Sortase A was greater than 159 µM throughout.
`O=C(O)CC[N+](=O)[O-]`: the IC50 at Isocitrate lyase turned out to be 17 µM.
Take `COC(=O)C1=C(c2cc(Br)c(O)c(Br)c2)[C@](OC)(c2cc(Br)c(O)c(Br)c2)O[C@@]1(C(=O)OC)c1cc(Br)c(O)c(Br)c1`: the MIC in the test on Staphylococcus aureus is 64 µg/mL; with Enterococcus faecalis it was greater than 128 µg/mL; in the test with Salmonella enterica it was greater than 128 µg/mL; in the test with Proteus hauseri it was greater than 128 µg/mL; with Enterococcus faecium it was greater than 128 µg/mL; in the test on Klebsiella pneumoniae it was greater than 128 µg/mL. Besides, the IC50 is greater than 10 µM in the test on K562, greater than 10 µM in the test on A549, 104 µM on Isocitrate lyase and greater than 133 µM on Sortase A.
Turning to `COC(=O)C1=C(c2cc(Br)c(O)c(Br)c2)C(=O)[C@](c2ccc(O)c(Br)c2)(c2cc(Br)c(O)c(Br)c2)C1=O`, the MIC in the test with Staphylococcus aureus is 16 µg/mL; in the test on Enterococcus faecalis, greater than 128 µg/mL; with Salmonella enterica it was 64 µg/mL; with Proteus hauseri, 64 µg/mL; in the test with Enterococcus faecium, greater than 128 µg/mL; with Klebsiella pneumoniae, greater than 128 µg/mL. Besides, the IC50 in the test with K562 was greater than 10 µM; in the test with A549, greater than 10 µM; at Isocitrate lyase, 49 µM; at Sortase A, 70 µM.
For `COC(=O)C1=C(c2cc(Br)c(O)c(Br)c2)C(=O)C(c2cc(Br)c(O)c(Br)c2)(c2cc(Br)c(O)c(Br)c2)C1=O`, the minimal inhibitory concentration (MIC) was 16 µg/mL in the test with Staphylococcus aureus; 64 µg/mL with Enterococcus faecalis; 64 µg/mL with Salmonella enterica; greater than 128 µg/mL in the test with Proteus hauseri; greater than 128 µg/mL with Enterococcus faecium; greater than 128 µg/mL in the test on Klebsiella pneumoniae. Further, the half-inhibitory concentration (IC50) in the test with K562 was greater than 10 µM; with A549, greater than 10 µM; on Isocitrate lyase it was 22 µM; on Sortase A, 67 µM.
As for `COc1ccc(/C=C2\OC(=O)C([C@@H](O)c3cc(Br)c(OC)c(Br)c3)=C2c2cc(Br)c(O)c(Br)c2)cc1Br`, the minimum inhibitory concentration (MIC) in the test with Staphylococcus aureus was 32 µg/mL; in the test on Enterococcus faecalis it was 64 µg/mL; in the test with Salmonella enterica, 64 µg/mL; in the test with Proteus hauseri, 8 µg/mL; with Enterococcus faecium, greater than 128 µg/mL; in the test with Klebsiella pneumoniae it was greater than 128 µg/mL. The half-maximal inhibitory concentration (IC50) is 150 µM on Isocitrate lyase and greater than 156 µM against Sortase A.
As for `COC(=O)C1=C(c2ccc(O)c(Br)c2)C(=O)[C@](c2ccc(O)c(Br)c2)(c2cc(Br)c(O)c(Br)c2)C1=O`, the MIC in the test on Staphylococcus aureus is 32 µg/mL; in the test on Enterococcus faecalis, greater than 128 µg/mL; in the test on Salmonella enterica it was 64 µg/mL; with Proteus hauseri, 8 µg/mL; in the test with Enterococcus faecium, greater than 128 µg/mL; in the test on Klebsiella pneumoniae, greater than 128 µg/mL. Also, the half-inhibitory concentration (IC50) in the test with K562 is greater than 10 µM; with A549 it was greater than 10 µM; on Isocitrate lyase, 47 µM; at Sortase A, 102 µM.
Regarding `COc1ccc(C[C@@]2(O)OC(=O)C([C@@H](O)c3cc(Br)c(OC)c(Br)c3)=C2c2cc(Br)c(O)c(Br)c2)cc1Br`, the minimal inhibitory concentration (MIC) was 16 µg/mL in the test on Staphylococcus aureus; 64 µg/mL in the test with Enterococcus faecalis; 16 µg/mL with Salmonella enterica; 16 µg/mL in the test on Proteus hauseri; greater than 128 µg/mL in the test on Enterococcus faecium; greater than 128 µg/mL with Klebsiella pneumoniae. In addition, the half-inhibitory concentration (IC50) with K562 is greater than 10 µM; in the test on A549, greater than 10 µM; on Isocitrate lyase, 63 µM; on Sortase A, greater than 153 µM.
As to `COC(=O)C1=C(c2cc(Br)c(O)c(Br)c2)C(=O)[C@](OC)(c2ccc(O)c(Br)c2)O[C@]1(OC)c1cc(Br)c(O)c(Br)c1`, the MIC in the test on Staphylococcus aureus was 64 µg/mL; in the test on Enterococcus faecalis, greater than 128 µg/mL; with Salmonella enterica, greater than 128 µg/mL; in the test on Proteus hauseri, greater than 128 µg/mL; in the test with Enterococcus faecium it was greater than 128 µg/mL; in the test with Klebsiella pneumoniae, greater than 128 µg/mL. Also, the concentration for half-maximal inhibition (IC50) in the test on K562 was greater than 10 µM; in the test on A549 it was greater than 10 µM; at Isocitrate lyase it was 127 µM; against Sortase A, greater than 145 µM.
Consider `COC(=O)C1=C(c2cc(Br)c(O)c(Br)c2)[C@](OC)(c2ccc(O)c(Br)c2)O[C@@]1(C(=O)OC)c1cc(Br)c(O)c(Br)c1`, for which the minimal inhibitory concentration (MIC) with Staphylococcus aureus is 64 µg/mL; in the test with Enterococcus faecalis, 8 µg/mL; in the test on Salmonella enterica, 64 µg/mL; in the test on Proteus hauseri, 64 µg/mL; with Enterococcus faecium it was greater than 128 µg/mL; in the test on Klebsiella pneumoniae it was greater than 128 µg/mL. Besides, the concentration for half-maximal inhibition (IC50) in the test on K562 was greater than 10 µM; in the test on A549 it was greater than 10 µM; on Isocitrate lyase, greater than 145 µM; at Sortase A it was greater than 145 µM.
Take `O=C1C=C(c2cc(Br)c(O)c(Br)c2)C(=O)C1(c1cc(Br)c(O)c(Br)c1)c1cc(Br)c(O)c(Br)c1`: the minimal inhibitory concentration (MIC) was 4 µg/mL in the test on Staphylococcus aureus; greater than 128 µg/mL in the test with Enterococcus faecalis; 64 µg/mL with Salmonella enterica; greater than 128 µg/mL with Proteus hauseri; greater than 128 µg/mL with Enterococcus faecium; greater than 128 µg/mL in the test on Klebsiella pneumoniae. The IC50 with K562 was greater than 10 µM; in the test with A549, greater than 10 µM; on Isocitrate lyase, 34 µM; at Sortase A, 88 µM.
Regarding `O=C(O)C1=C(c2ccc(O)c(Br)c2)C(=O)C(c2cc(Br)c(O)c(Br)c2)(c2cc(Br)c(O)c(Br)c2)C1=O`, the MIC in the test on Staphylococcus aureus, with Enterococcus faecalis, in the test on Salmonella enterica, with Proteus hauseri, in the test with Enterococcus faecium and with Klebsiella pneumoniae was greater than 128 µg/mL in each case. Further, the half-maximal inhibitory concentration (IC50) is greater than 10 µM with K562, greater than 10 µM with A549, 54 µM on Isocitrate lyase and greater than 159 µM on Sortase A.
On to `CC1(C)S[C@@H]2[C@H](NC(=O)[C@H](N)c3ccccc3)C(=O)N2[C@H]1C(=O)O` [AMPICILLIN], for which the MIC is 0.03 µg/mL in the test on Staphylococcus aureus; 0.5 µg/mL with Enterococcus faecalis; 0.06 µg/mL in the test with Salmonella enterica; 0.03 µg/mL with Proteus hauseri; 0.5 µg/mL in the test on Enterococcus faecium.
As for `COc1ccc2cc3[n+](cc2c1OC)CCc1cc2c(cc1-3)OCO2` [BERBERINE CHLORIDE], the IC50 against Sortase A stood at 102 µM.
`O=C1O/C(=C\c2cc(Br)c(O)c(Br)c2)C(c2cc(Br)c(O)c(Br)c2)=C1C(=O)c1cc(Br)c(O)c(Br)c1` [CADIOLIDE B]: the minimum inhibitory concentration (MIC) in the test on Staphylococcus aureus is 64 µg/mL; with Enterococcus faecalis it was greater than 128 µg/mL; in the test on Salmonella enterica, greater than 128 µg/mL; with Proteus hauseri, greater than 128 µg/mL; in the test on Enterococcus faecium it was greater than 128 µg/mL; with Klebsiella pneumoniae, greater than 128 µg/mL. Further, the IC50 on Isocitrate lyase amounted to 61 µM; against Sortase A, 103 µM.
In the case of `O=C1O/C(=C\c2ccc(O)c(Br)c2)C(c2ccc(O)c(Br)c2)=C1C(=O)c1cc(Br)c(O)c(Br)c1` [CADIOLIDE C], the MIC in the test with Staphylococcus aureus is 32 µg/mL; in the test with Enterococcus faecalis, greater than 128 µg/mL; with Salmonella enterica, 64 µg/mL; with Proteus hauseri, greater than 128 µg/mL; in the test on Enterococcus faecium it was greater than 128 µg/mL; with Klebsiella pneumoniae, greater than 128 µg/mL. Also, the 50% inhibitory concentration (IC50) at Isocitrate lyase turned out to be 17 µM; against Sortase A, 59 µM.
With `O=C1O/C(=C\c2ccc(O)c(Br)c2)C(c2cc(Br)c(O)c(Br)c2)=C1C(=O)c1cc(Br)c(O)c(Br)c1` [CADIOLIDE D], the MIC in the test on Staphylococcus aureus was 64 µg/mL; in the test on Enterococcus faecalis it was greater than 128 µg/mL; with Salmonella enterica it was greater than 128 µg/mL; in the test with Proteus hauseri, greater than 128 µg/mL; in the test with Enterococcus faecium it was greater than 128 µg/mL; with Klebsiella pneumoniae, greater than 128 µg/mL. The IC50 worked out at 11 µM on Isocitrate lyase and 34 µM against Sortase A.
Take `O=C1O/C(=C\c2cc(Br)c(O)c(Br)c2)C(c2ccc(O)c(Br)c2)=C1C(=O)c1cc(Br)c(O)c(Br)c1` [CADIOLIDE E]: the MIC in the test on Staphylococcus aureus, in the test on Enterococcus faecalis, with Salmonella enterica, in the test with Proteus hauseri, in the test with Enterococcus faecium and with Klebsiella pneumoniae was greater than 128 µg/mL each time. The values for the half-maximal inhibitory concentration (IC50) at Isocitrate lyase and on Sortase A were 27 µM and greater than 162 µM, respectively.
Turning to `O=C1C=C(c2cc(Br)c(O)c(Br)c2)/C(=C/c2cc(Br)c(O)c(Br)c2)O1` [RUBROLIDE A], the MIC is 32 µg/mL in the test on Staphylococcus aureus; greater than 128 µg/mL in the test on Enterococcus faecalis; 32 µg/mL with Salmonella enterica; 16 µg/mL in the test with Proteus hauseri; greater than 128 µg/mL in the test with Enterococcus faecium; greater than 128 µg/mL in the test on Klebsiella pneumoniae. The concentration for half-maximal inhibition (IC50) on Isocitrate lyase is greater than 216 µM; against Sortase A, 216 µM.
Turning to `CN(C)[C@@H]1C(O)=C(C(N)=O)C(=O)[C@@]2(O)C(O)=C3C(=O)c4c(O)cccc4[C@@](C)(O)[C@H]3C[C@@H]12` [TETRACYCLINE], the MIC in the test on Klebsiella pneumoniae amounted to 0.25 µg/mL.
